Like-named read-outs stand apart in the source and are kept apart here.
Tests used:
[1] = system: Mycobacterium tuberculosis strain EH 4.0 (361.269); assay: Test 4: MIC determination, resazurin fluorescence, strain EH 4.0; type: cell-based; settings: for pIC50: Test 4, M. tuberculosis strain EH 4.0 (361.269); for IC50: Mycobacterium tuberculosis, read-out: pIC50, Test 4, M. tuberculosis strain EH 4.0 (361.269) (converted)
Excerpt: TEST 4 (See Also Test 1 Above; in this Test a Different Strain of Mycobacterium tuberculosis Strain is Employed)
Appropriate solutions of experimental and reference compounds were made in 96 well plates with 7H9 medium. Samples of Mycobacterium tuberculosis strain EH 4.0 (361.269) were taken from cultures in stationary growth phase. These were first diluted to obtain an optical density of 0.3 at 600 nm wavelength and then diluted 1/100, resulting in an inoculum of approximately 5×10 exp5 colony forming units per well. Plates were incubated at 37° C. in plastic bags to prevent evaporation. After 7 days, resazurin was added to all wells.

[2] = system: Mycobacterium tuberculosis strain H37Rv; assay: Test 1: MIC determination, resazurin fluorescence, M. tuberculosis H37Rv; type: cell-based; settings: for IC50: Mycobacterium tuberculosis, H37RV
[3] = Test 1, M. tuberculosis H37Rv, first test, read-out: pIC50 (converted)
[4] = Test 1, repeated (2nd) test, read-out: pIC50 * (converted)
[5] = Test 1, repeated (3rd) test, read-out: pIC50 ** (converted)
[6] = Test 1, M. tuberculosis H37Rv, first test

Question: What does the source list for `CCc1nc2ccc(Cl)cn2c1C(=O)NCC1CC12CCN(c1ccc(OC(F)(F)F)cc1)CC2` (stereo not drawn) [Compound 1]?
Answer: pIC50 [1]: 7.0; IC50 ([2]; read-out: pIC50 (converted)): 0.00933 µM; IC50 ([2]; read-out: pIC50 * (converted)): 0.0132 µM

Question: How did the IC50 [1] turn out when `CCc1nc2ccc(Cl)cn2c1C(=O)NCc1ccc(C2CC3(C2)CN(c2ccc(OC(F)(F)F)cc2)C3)cc1` [Compound 2] was run?
Answer: Its IC50 is 0.0501 µM.

Question: What about the IC50 [2, 3] of the same compound?
Answer: The IC50 was 0.0162 µM.

Question: What about the IC50 [2, 4] of the same compound?
Answer: Its IC50 is 0.0148 µM.

Question: What about the IC50 [2, 5] of the same compound?
Answer: The IC50 was 0.0117 µM.

Question: For `CCc1nc2ncc(Cl)cn2c1C(=O)NCc1ccc(C2CC3(C2)CN(c2ccc(OC(F)(F)F)cc2)C3)cc1` [Compound 3], which IC50 [1] is on record?
Answer: Its IC50 is 0.00501 µM.

Question: And the IC50 [2, 3]?
Answer: The IC50 was 0.0257 µM.

Question: What about the IC50 [2, 4] of the same compound?
Answer: Its IC50 is 0.0263 µM.

Question: And the IC50 [2, 5]?
Answer: Its IC50 is 0.0257 µM.

Question: What does the source list for `CCc1nc2n(c1C(=O)NCc1ccc(N3CC4(C3)CN(c3ccc(OC(F)(F)F)cc3)C4)cc1)CCCC2` [Compound 6]?
Answer: IC50 [1]: 0.0251 µM; IC50 [2, 3]: 0.141 µM; IC50 [2, 4]: 0.102 µM; IC50 [2, 5]: 0.129 µM

Question: For `CCc1nc2ccc(Cl)cn2c1C(=O)NCc1ccc(N2CC3(CC(c4ccc(OC(F)(F)F)cc4)C3)C2)cc1` [Compound 7], which IC50 [1] is on record?
Answer: The IC50 was 0.0158 µM.

Question: What about the IC50 [2, 3] of the same compound?
Answer: The IC50 was 0.1 µM.

Question: What about the IC50 [2, 4] of the same compound?
Answer: The IC50 was 0.0759 µM.

Question: And the IC50 [2, 5]?
Answer: Its IC50 is 0.0794 µM.

Question: Which results are given for `CCc1nc2ncc(Cl)cn2c1C(=O)NCc1ccc(N2CC3(CC(c4ccc(OC(F)(F)F)cc4)C3)C2)cc1` [Compound 8]?
Answer: IC50 [1]: 0.0501 µM; IC50 [2, 3]: 0.148 µM; IC50 [2, 4]: 0.186 µM; IC50 [2, 5]: 0.17 µM

Question: For `CCc1nc2ncc(Cl)cn2c1C(=O)NCc1ccc(N2CC3(CC(c4ccccc4)C3)C2)cc1` [Compound 9], which IC50 [1] is on record?
Answer: The IC50 was 0.0126 µM.

Question: What about the IC50 [2, 3] of the same compound?
Answer: Its IC50 is 0.0832 µM.

Question: What about the IC50 [2, 4] of the same compound?
Answer: Its IC50 is 0.0724 µM.

Question: What about the IC50 [2, 5] of the same compound?
Answer: Its IC50 is 0.0537 µM.

Question: For `CCc1nc2ccc(Cl)cn2c1C(=O)NCc1ccc(N2CC3(CC(c4ccc(S(F)(F)(F)(F)F)cc4)C3)C2)cc1` [Compound 10], which IC50 [1] is on record?
Answer: Its IC50 is 0.0316 µM.

Question: What about the IC50 [2, 3] of the same compound?
Answer: The IC50 was 0.148 µM.

Question: And the IC50 [2, 4]?
Answer: Its IC50 is 0.141 µM.

Question: What about the IC50 [2, 5] of the same compound?
Answer: The IC50 was 0.107 µM.

Question: `CCc1nc2ncc(Cl)cn2c1C(=O)NCc1ccc(N2CC3(CC(c4cccnc4)C3)C2)cc1` [Compound 11] was tested. Which IC50 [1] did it give?
Answer: Its IC50 is 0.794 µM.

Question: What about the IC50 [2, 3] of the same compound?
Answer: Its IC50 is 1.86 µM.

Question: And the IC50 [2, 4]?
Answer: The IC50 was 3.02 µM.

Question: What about the IC50 [2, 5] of the same compound?
Answer: The IC50 was 1.2 µM.

Question: What does the source list for `Cc1nc2sc(Br)cn2c1C(=O)NCc1ccc(N2CC3(CCC3)C2)cc1` [Compound 13]?
Answer: IC50 [1]: 0.0316 µM; IC50 [2, 3]: 0.269 µM; IC50 [2, 4]: 0.257 µM; IC50 [2, 5]: 0.263 µM

Question: Which IC50 [1] does the source give for `CCc1nc2ccc(Cl)cn2c1C(=O)NCC1CCC2(CCN(c3ccc(OC(F)(F)F)cc3)CC2)CO1` (stereo not drawn) [Compound 14] here?
Answer: The IC50 was 0.398 µM.

Question: And the IC50 [2, 3]?
Answer: Its IC50 is 2.82 µM.

Question: And the IC50 [2, 4]?
Answer: The IC50 was 2.95 µM.

Question: For `CCc1nc2ccc(Cl)cn2c1C(=O)NCC1CC2(CCN(c3ccc(OC(F)(F)F)cc3)CC2)C1` [Compound 15], which IC50 [1] is on record?
Answer: Its IC50 is 0.158 µM.

Question: What about the IC50 [2, 3] of the same compound?
Answer: The IC50 was 0.102 µM.

Question: And the IC50 [2, 4]?
Answer: Its IC50 is 0.0955 µM.

Question: How did the pIC50 [1] turn out when `CCc1nc2ccc(Cl)cn2c1C(=O)NCc1ccc(N2CC3(CC(F)C3)C2)cc1` [Compound 16] was run?
Answer: The pIC50 was 8.0.

Question: What about the pIC50 [2, 6] of the same compound?
Answer: The pIC50 was 6.55.

Question: And the “pIC50 *” value ([2]; Test 1, repeated (2nd) test)?
Answer: Its value is 6.61.

Question: Which results are given for `CCc1nc2ccc(Cl)cn2c1C(=O)NCc1ccc(N2CC3(CC(F)C3)C2)cc1` [Compound 17]?
Answer: pIC50 [1]: 7.4; IC50 [2, 4]: 0.316 µM; IC50 [2, 5]: 0.468 µM; pIC50 [2, 6]: 7.82

Question: Which results are given for `CCc1nc2sc(C)cn2c1C(=O)NCc1ccc(N2CC3(CC(F)C3)C2)cc1` [Compound 18]?
Answer: IC50 [1]: 0.0316 µM; IC50 [2, 3]: 0.191 µM; IC50 [2, 4]: 0.123 µM; IC50 [2, 5]: 0.126 µM

Question: What does the source list for `CCc1nc2n(c1C(=O)NCc1ccc(N3CC4(CC(F)C4)C3)cc1)CCCC2` [Compound 19]?
Answer: IC50 [1]: 1.26 µM; IC50 [2, 3]: 0.794 µM; IC50 [2, 4]: 1.15 µM; IC50 [2, 5]: 1.07 µM

Question: With `CCc1nc2sc(C)cn2c1C(=O)NCc1ccc(N2CC3(CC(=O)C3)C2)cc1` [Compound 21] as the compound, how does the IC50 [1] read?
Answer: The IC50 was 0.1 µM.

Question: And the IC50 ([2]; read-out: pIC50 (converted))?
Answer: Its IC50 is 2.45 µM.

Question: What about the IC50 ([2]; read-out: pIC50 * (converted)) of the same compound?
Answer: The IC50 was 1.05 µM.

Question: What about the IC50 ([2]; read-out: pIC50 ** (converted)) of the same compound?
Answer: The IC50 was 1.38 µM.

Question: Which results are given for `Cc1nc2sccn2c1C(=O)NCc1ccc(N2CC3(CC(c4ccc(OC(F)(F)F)cc4)C3)C2)cc1` [Compound 24]?
Answer: IC50 [1]: 0.251 µM; IC50 ([2]; read-out: pIC50 (converted)): 0.2 µM; IC50 ([2]; read-out: pIC50 * (converted)): 0.275 µM; IC50 ([2]; read-out: pIC50 ** (converted)): 0.115 µM

Question: For `CCc1nc2sc(C)cn2c1C(=O)NCc1ccc(N2CC3(COC3)C2)cc1` [Compound 27], which IC50 [1] is on record?
Answer: Its IC50 is 0.398 µM.

Question: What about the IC50 [2, 3] of the same compound?
Answer: Its IC50 is 4.07 µM.

Question: And the IC50 [2, 4]?
Answer: Its IC50 is 4.17 µM.

Question: What about the IC50 [2, 5] of the same compound?
Answer: Its IC50 is 2.88 µM.

Question: `CCc1nc2n(c1C(=O)NCC1CC3(CCN(c4ccc(OC(F)(F)F)cc4)CC3)C1)CCCC2` [Compound 61] was tested. Which IC50 [1] did it give?
Answer: Its IC50 is 0.631 µM.

Question: For `CCc1nc2ccc(Cl)cn2c1C(=O)NCC1CC12CCN(c1ccc(OC(F)(F)F)cc1)CC2` (stereo not drawn) [Compound 63], which pIC50 [1] is on record?
Answer: Its pIC50 is 6.5.

Question: `CCc1nc2sc(C)cn2c1C(=O)NCC1CC12CCN(c1ccc(OC(F)(F)F)cc1)CC2` (stereo not drawn) [Compound 64] was tested. Which IC50 [1] did it give?
Answer: Its IC50 is 0.1 µM.

Question: Which IC50 [1] does the source give for `CCc1nc2n(c1C(=O)NCc1ccc(C3CC4(C3)CN(c3ccc(OC(F)(F)F)cc3)C4)cc1)CCCC2` [Compound 65] here?
Answer: Its IC50 is 0.01 µM.

Question: Which IC50 [1] does the source give for `CCc1nc2ncc(Cl)cn2c1C(=O)NCc1ccc(N2CC3(CC(c4ccc(S(F)(F)(F)(F)F)cc4)C3)C2)cc1` [Compound 66] here?
Answer: The IC50 was 0.00794 µM.

Question: How did the IC50 [1] turn out when `CCc1nc2sc(C)cn2c1C(=O)NCc1ccc(C2CC3(C2)CN(c2ccc(OC(F)(F)F)cc2)C3)cc1` [Compound 67] was run?
Answer: The IC50 was 0.01 µM.

Question: Which IC50 [1] does the source give for `CCc1nc2n(c1C(=O)NCc1ccc(C3CC4(C3)CN(c3ccc(OC(F)(F)F)cc3)C4)cc1)CCN(C)C2` [Compound 69] here?
Answer: The IC50 was 0.0316 µM.

Question: For `CCc1nc2n(c1C(=O)NCc1ccc(N3CC4(C3)CN(c3ccc(OC(F)(F)F)cc3)C4)cc1)CCN(C)C2` [Compound 70], which IC50 [1] is on record?
Answer: Its IC50 is 0.316 µM.

Question: Which IC50 [1] does the source give for `CCc1nc2n(c1C(=O)NCc1ccc(N3CC4(CC(c5ccc(OC(F)(F)F)cc5)C4)C3)cc1)CCN(C)C2` [Compound 71] here?
Answer: The IC50 was 0.316 µM.
